In one data set the target is T1, hERG channel (Homo sapiens, UniProt Q12809).
T1 construct: expressed in transfected cells; host or cells: CHO (Chinese hamster ovary), CHOhERG
Put plainly: hERG channel inhibition assay (patch-clamp, CHOhERG cells). The data set is classed as cell-based. The conditions noted are these: for safety window (hERG IC20/TLR7/8/9 IC50) compared to the compounds of this invention: in words; for hERG IC20/TLR7 IC50 / hERG IC20/TLR9 IC50 / hERG IC20/TLR8 IC50: safety ratio, >30 suggests sufficient window. As to the method: hERG Channel Inhibition Assay:
The hERG K^+ channels were cloned in humans and stably expressed in a CHO (Chinese hamster ovary) cell line. CHOhERG cells were used for patch-clamp (voltage-clamp, whole-cell) experiments. Cells were stimulated by a voltage pattern to activate hERG channels and conduct hERG currents (rapid delayed outward rectifier potassium current of the hERG channel). After the cells were stabilized for a few minutes, the amplitude and kinetics of IKhERG were recorded at a stimulation frequency of 0.1 Hz (6 bpm). Thereafter, the test compound was added to the preparation at increasing concentrations. For each concentration, an attempt was made to reach a steady-state effect, usually, this was achieved within 3-10 min at which time the next highest concentration was applied. The amplitude and kinetics of IKhERG are recorded in each concentration of the drug which were compared to the control values (taken as 100%). (references: Redfern W S, Carlsson L, Davis A S, Lynch W G, MacKenzie I, Palethorpe S, Siegl P K, Strang I, Sullivan A T, Wallis R, Camm A J, Hammond T G. 2003; Relationships between preclinical cardiac electrophysiology, clinical QT interval prolongation and torsade de pointes for a broad range of drugs: evidence for a provisional safety margin in drug development. Cardiovasc. Res. 58:32-45, Sanguinetti MC, Tristani-Firouzi M. 2006; hERG potassium channels and cardiac arrhythmia. Nature 440:463-469, Webster R, Leishman D, Walker D. 2002; Towards a drug concentration effect relationship for QT prolongation and torsades de pointes. Curr. Opin. Drug Discov. Devel. 5:116-26).
(The hERG channel carries a current that helps repolarise heart muscle cells.)

Data set [1] deals with T2, TLR9 (Homo sapiens, UniProt Q9NR96).
T2 sequence (Q9NR96 26-1032): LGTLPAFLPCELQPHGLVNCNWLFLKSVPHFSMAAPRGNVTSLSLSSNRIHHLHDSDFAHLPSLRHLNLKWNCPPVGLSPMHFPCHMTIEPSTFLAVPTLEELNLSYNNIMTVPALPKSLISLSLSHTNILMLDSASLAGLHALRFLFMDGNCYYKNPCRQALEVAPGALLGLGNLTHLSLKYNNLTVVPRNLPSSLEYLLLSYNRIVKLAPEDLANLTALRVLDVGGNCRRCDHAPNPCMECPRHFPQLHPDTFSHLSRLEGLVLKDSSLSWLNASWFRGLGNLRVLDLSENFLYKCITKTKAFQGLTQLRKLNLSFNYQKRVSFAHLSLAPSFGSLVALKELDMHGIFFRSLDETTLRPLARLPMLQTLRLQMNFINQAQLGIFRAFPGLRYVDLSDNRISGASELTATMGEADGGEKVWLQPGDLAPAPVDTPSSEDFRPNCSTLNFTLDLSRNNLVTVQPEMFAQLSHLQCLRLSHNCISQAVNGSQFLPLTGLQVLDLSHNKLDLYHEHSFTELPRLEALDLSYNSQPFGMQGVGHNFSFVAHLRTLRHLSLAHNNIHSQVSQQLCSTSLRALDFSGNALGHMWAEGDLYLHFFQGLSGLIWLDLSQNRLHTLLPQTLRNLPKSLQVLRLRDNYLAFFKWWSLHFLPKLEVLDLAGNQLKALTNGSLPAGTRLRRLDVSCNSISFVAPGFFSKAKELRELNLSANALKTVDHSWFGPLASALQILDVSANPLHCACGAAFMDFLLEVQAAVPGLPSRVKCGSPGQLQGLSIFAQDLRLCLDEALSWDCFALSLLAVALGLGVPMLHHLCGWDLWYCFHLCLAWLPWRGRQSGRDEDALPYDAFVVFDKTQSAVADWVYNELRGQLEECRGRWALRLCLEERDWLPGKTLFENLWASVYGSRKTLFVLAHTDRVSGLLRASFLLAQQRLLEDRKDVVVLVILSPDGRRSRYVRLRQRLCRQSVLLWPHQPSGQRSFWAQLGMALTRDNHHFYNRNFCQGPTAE
Further details: host or cells: HEK cells. The conditions noted are these: data disclosed in US20150105370; read-out: HEK/hTLR9 IC50; cited from earlier work.

Data set [2] deals with T2, TLR9. Put plainly: Human PBMC cell-based assay. Further details: endogenous in cells; host or cells: human PBMC from healthy donor whole blood. The conditions noted are these: CpG ODN 2216 stimulation, overnight, cytokine readout, read-out: hPBMC/TLR9 IC50. From the text: Human PBMC Cell-Based Assay
Unlike the HEK reporter cell lines, human peripheral blood mononuclear cell (PBMC) represents primary human immune cells in blood mainly consisting of lymphocytes, monocytes, and dendritic cells. These cells express TLR7, TLR8, or TLR9, and therefore are natural responders to respective ligand stimulation. Upon activation of these TLRs, PBMCs secrete similar cytokines and chemokines in vitro and in vivo, and therefore the in vitro potency of a TLR7/8/9 antagonist in human PBMC is readily translatable to its pharmacodynamics response in vivo.
Human peripheral blood mononuclear cells (PBMC) were isolated from freshly-drawn lithium-heparinized (Lithium Heparin Plus blood Collection tube, BD Vacutainer®) healthy donor whole blood by density gradient (Ficoll-Paque™ PLUS, GE Healthcare life Sciences). Briefly, […] was diluted with 25 mL PBS (without Ca^2+, Mg^2+) in a 50 mL conical tube with porous barrier (Leucosep tube, Greiner bio-one), where 15.5 mL Ficoll-Paque was under laid after spinning. Tubes were centrifuged for 20 minutes at 800×g (1946 rpm) with the brake in the off position, and PBMC were collected from the buffy coat. Cells were then washed twice in PBS, and red blood cells were lysed by suspension in 2 mL (Red Blood Cell Lysis Buffer, Alfa Aesar) for 5-10 minutes at room temperature. After a final wash in PBS, PBMC were resuspended at a final concentration of 2×10^6 cells/mL in RPMI-1640 media with GlutaMAX™ (Gibco) supplemented with 10% Fetal Bovine Serum (Sigma) and plated at 150 μL/well (3×10^5 cells/well) in tissue culture treated round bottom 96-well plates (Corning Incorporated). Antagonist compounds (compounds of this invention) solubilized and serial diluted in 100% DMSO were added in duplicate to cells to yield a final concentration of 1% DMSO (v/v). PBMC were incubated with antagonist compounds for 30 minutes at 37° C., 5% CO2 before adding various TLR agonist reagents in 48 μL complete media per well as follows (final concentrations indicated): CpG ODN 2216 (InvivoGen) at […] for TLR9, ORN 06/LyoVec (InvivoGen) at 1 μg/mL for TLR8 and R848 (InvivoGen) at 1 μg/mL for TLR7 and TLR8. PBMC were incubated overnight at 37° C. with 5% CO2. Cell culture supernatants were collected, and levels of various human cytokines were assessed by Luminex assay (ProcartaPlex™ Multiplex Immunoassay, Invitrogen) or ELISA procedure according to the manufacturer's recommended protocol (eBioscience, ThermoFisher Scientific). Viability of the cells was also checked with Cell Viability Assay (CellTiter Glo® Luminescent Cell Viability Assay, Promega).

Each structure is given as a SMILES string. Where two headings read alike, the source gives them in different places.

T1 sequence (Q12809 whole entry): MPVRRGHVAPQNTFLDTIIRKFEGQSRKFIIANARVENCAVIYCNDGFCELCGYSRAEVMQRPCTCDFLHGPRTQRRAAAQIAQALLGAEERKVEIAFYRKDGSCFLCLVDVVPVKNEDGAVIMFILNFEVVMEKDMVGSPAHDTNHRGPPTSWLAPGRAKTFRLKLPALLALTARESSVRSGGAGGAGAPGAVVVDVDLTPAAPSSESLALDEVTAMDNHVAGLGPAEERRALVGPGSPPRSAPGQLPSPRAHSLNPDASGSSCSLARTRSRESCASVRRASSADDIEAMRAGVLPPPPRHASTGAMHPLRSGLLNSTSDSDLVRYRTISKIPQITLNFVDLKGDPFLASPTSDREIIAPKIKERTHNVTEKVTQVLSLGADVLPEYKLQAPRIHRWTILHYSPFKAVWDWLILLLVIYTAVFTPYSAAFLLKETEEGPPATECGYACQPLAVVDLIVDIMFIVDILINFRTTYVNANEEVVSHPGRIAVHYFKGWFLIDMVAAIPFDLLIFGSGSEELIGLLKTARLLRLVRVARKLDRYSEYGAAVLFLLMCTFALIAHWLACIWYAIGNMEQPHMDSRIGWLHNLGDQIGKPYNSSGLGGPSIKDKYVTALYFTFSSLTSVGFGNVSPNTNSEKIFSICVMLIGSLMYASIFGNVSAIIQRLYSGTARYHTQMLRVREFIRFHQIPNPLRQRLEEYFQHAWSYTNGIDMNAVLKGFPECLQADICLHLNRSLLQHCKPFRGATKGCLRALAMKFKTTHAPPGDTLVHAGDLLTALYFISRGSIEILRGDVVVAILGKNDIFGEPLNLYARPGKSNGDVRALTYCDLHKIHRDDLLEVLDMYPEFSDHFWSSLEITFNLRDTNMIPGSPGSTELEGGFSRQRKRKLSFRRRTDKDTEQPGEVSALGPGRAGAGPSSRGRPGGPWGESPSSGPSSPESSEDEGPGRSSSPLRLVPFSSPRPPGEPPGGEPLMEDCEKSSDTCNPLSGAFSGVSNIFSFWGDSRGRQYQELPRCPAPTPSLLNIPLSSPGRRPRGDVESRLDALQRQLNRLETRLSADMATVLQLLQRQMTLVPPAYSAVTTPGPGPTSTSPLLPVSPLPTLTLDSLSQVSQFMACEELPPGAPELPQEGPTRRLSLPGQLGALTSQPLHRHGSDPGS

Take `C[C@@H]1CN(c2ccc(C#N)c3ncccc23)C[C@H](CN2CCN(c3ccccc3)CC2)O1` [ER-887258, reference compound]: at hERG channel, the “safety window (hERG IC20/TLR7/8/9 IC50) compared to the compounds of this invention” value was “much narrower safety window”, the “hERG IC20/TLR7 IC50” value stood at 8.1 and the “hERG IC20/TLR9 IC50” value turned out to be 0.3. Moreover, on TLR9 [1], the IC50 is > 2 µM.

In the case of `C[C@@H]1CN(c2ccc(C#N)c3ncccc23)C[C@H](CN2CCN(c3ccccn3)CC2)O1` [ER-888285, reference compound], at hERG channel, the “safety window (hERG IC20/TLR7/8/9 IC50) compared to the compounds of this invention” value is on record as “much narrower safety window”, the “hERG IC20/TLR7 IC50” value is on record as 8.4 and the “hERG IC20/TLR9 IC50” value stood at 0.5. Also, at TLR9 [1], the IC50 is > 2 µM.

Regarding `C[C@@H]1CN(c2ccc(C#N)c3ncccc23)C[C@H](CN2CCN(c3ccncc3)CC2)O1` [ER-888286, reference compound], the IC50 on TLR9 [2] was found to be 1.63 µM. In addition, on hERG channel, the “safety window (hERG IC20/TLR7/8/9 IC50) compared to the compounds of this invention” value is “much narrower safety window”, the “hERG IC20/TLR7 IC50” value is listed as 0.3 and the “hERG IC20/TLR9 IC50” value is 0.2. The IC50 on TLR9 [1] was > 2 µM.

As for `C[C@@H]1CN(c2ccc(C#N)c3ncccc23)C[C@H](CN2CC(NS(=O)(=O)c3ccc(F)cc3)C2)O1` [ER-894155], the IC50 at TLR9 [1] is > 10 µM.

In the case of `Cc1nn(C)cc1S(=O)(=O)NC1CCN(C[C@H]2CN(c3ccc(C#N)c4ncccc34)C[C@@H](C)O2)CC1` [ER-894160], the IC50 at TLR9 [1] was > 10 µM.

Take `C[C@@H]1CN(c2ccc(C#N)c3ncccc23)C[C@H](CN2CC[C@@H](NC(=O)c3ccccc3)C2)O1` [ER-894544]: the IC50 on TLR9 [1] was > 6.2 µM.

As for `COc1ccc(N2CCN(C[C@H]3CN(c4ccc(C#N)c5ncccc45)C[C@@H](C)O3)CC2)cc1` [Example R1, 5-[(2S,6R)-2-[[4-(4-methoxyphenyl)piperazin-1-yl]methyl]-6-methyl-morpholin-4-yl]quinoline-8-carbonitrile, reference compound], at hERG channel, the “safety window (hERG IC20/TLR7/8/9 IC50) compared to the compounds of this invention” value was “much narrower safety window”, the “hERG IC20/TLR7 IC50” value is 9.3, the “hERG IC20/TLR8 IC50” value is 6.2 and the “hERG IC20/TLR9 IC50” value is listed as 0.1.

Regarding `C[C@@H]1CN(c2ccc(C#N)c3ncccc23)C[C@H](CN2CCN(c3ccc(Cl)cc3)CC2)O1` [Example R2, 5-[(2S,6R)-2-[[4-(4-chlorophenyl)piperazin-1-yl]methyl]-6-methyl-morpholin-4-yl]quinoline-8-carbonitrile, reference compound], at hERG channel, the “safety window (hERG IC20/TLR7/8/9 IC50) compared to the compounds of this invention” value is given as “much narrower safety window”, the “hERG IC20/TLR7 IC50” value came out at 1.3, the “hERG IC20/TLR8 IC50” value is recorded as 0.8 and the “hERG IC20/TLR9 IC50” value came to 0.04.

The values above are taken from US20210300924A1, “5-[6-[[3-(4,5,6,7-TETRAHYDROPYRAZOLO[4,3-C]PYRIDIN-1-YL)AZETIDIN-1-YL]METHYL]MORPHOLIN-4-YL]QUINOLINE-8-CARBONITRILE DERIVATIVES AND SIMILAR COMPOUNDS AS TLR7-9 ANTAGONISTS FOR TREATING SYSTEMIC LUPUS ERYTHEMATOSUS” (Hoffmann-La Roche Inc., priority 2018, published 2021).
